These results are taken from patent US11076595B2, “1-(n,n-disubstituted carbamoyl) 4-(substituted sulfonyl)triazolin-5-one derivative, 4-(n,n-disubstituted carbamoyl) 1-(substituted sulfonyl)triazolin-5-one derivative, and herbicide containing said derivative as active ingredient” (HOKKO CHEMICAL INDUSTRY CO., LTD., priority 2017, dated 2021).

Common to all, as to format: in vivo
Test [1] deals with Scirpus juncoides. The experiment in a line: Test Example 12: herbicidal effect test by treatment during growing period in paddy field. Conditions: 120 g/10a; treatment seven days after sowing in flooded paddy pot; assessed 14 days after treatment. The method, then: (§1) This test was performed with two replications per one formulation concentration plot, and 14 days after the formulation treatments, the weed suppression rate (%) was determined according to the following equation (Math. 2). Weed suppression rate (%)=(1−average dry weight (g) of plants in treated plots/average dry weight (g) of plants in untreated plots)×100 [Math. 2]
(§2) A Wagner pot having an area of 1/10000 are was filled with paddy field soil and after adding water, a chemical fertilizer (N:P:K=17:17:17) was mixed, followed by puddling. Thereafter, 30 grains of each of Echinochloa crus-galli, broad-leaved weed (Lindernia pyxidaria, Monochoria vaginalis) and Scirpus juncoides seeds were sown to a depth of 0 to 1 cm. Immediately after the sowing, the pot was flooded, and the depth of water was kept at about 3 cm. The pot was subsequently managed in a glass greenhouse. Seven Days after sowing, an emulsifiable concentrate prepared according to Formulation Example 15 by using the compound shown in Table 10 below was diluted with water, and a predetermined amount of the water-diluted formulation was added dropwise. The application rate of the active ingredient, by conversion, corresponded to 120 g per 10 are. The test was performed with two replications per one formulation concentration plot, and 14 days after the formulation treatments, the weed suppression rate (%) was determined according to the equation (Math. 2).

The test system of test [2] is Echinochloa crus-galli. Described as above. Conditions: 120 g/10a; treatment seven days after sowing in flooded paddy pot; assessed 14 days after treatment. As to the method:
as §1, §2

Test [3] deals with Lindernia pyxidaria. The test is described as above. Conditions: 120 g/10a; treatment seven days after sowing in flooded paddy pot; assessed 14 days after treatment. The method, then:
as §1, §2

The test system of test [4] is Monochoria vaginalis. The test is described as above. Conditions: 120 g/10a; treatment seven days after sowing in flooded paddy pot; assessed 14 days after treatment. As to the method: as §1, §2
The test system of test [5] is Scirpus juncoides. The experiment in a line: Test Example 11: herbicidal effect test by soil treatment in paddy field. The note with it: 120 g/10a active ingredient, 14 days after treatment.
Text: as §2, with “greenhouse. Just” for “greenhouse. Seven Days”, “after that,” for “after sowing,”, “Table 9” for “Table 10”, “are.” for “are. The test was performed with two replications per one formulation concentration plot, and 14 days after the formulation treatments, the weed suppression rate (%) was determined according to the equation (Math. 2).”
as §1

Test [6] concerns Echinochloa crus-galli. Described as above. Conditions: 120 g/10a active ingredient, 14 days after treatment.
Text: as §2, with “greenhouse. Just” for “greenhouse. Seven Days”, “after that,” for “after sowing,”, “Table 9” for “Table 10”, “are.” for “are. The test was performed with two replications per one formulation concentration plot, and 14 days after the formulation treatments, the weed suppression rate (%) was determined according to the equation (Math. 2).”
as §1

The test system of test [7] is Lindernia pyxidaria. Described as above. The note with it: 120 g/10a active ingredient, 14 days after treatment.
Text: as §2, with “greenhouse. Just” for “greenhouse. Seven Days”, “after that,” for “after sowing,”, “Table 9” for “Table 10”, “are.” for “are. The test was performed with two replications per one formulation concentration plot, and 14 days after the formulation treatments, the weed suppression rate (%) was determined according to the equation (Math. 2).”
as §1

The subject of test [8] is Monochoria vaginalis. The description is as above. Conditions: 120 g/10a active ingredient, 14 days after treatment.
Text: as §2, with “greenhouse. Just” for “greenhouse. Seven Days”, “after that,” for “after sowing,”, “Table 9” for “Table 10”, “are.” for “are. The test was performed with two replications per one formulation concentration plot, and 14 days after the formulation treatments, the weed suppression rate (%) was determined according to the equation (Math. 2).”
as §1

In the case of `CC(C)N(C(=O)n1cnn(S(=O)(=O)c2ccc(F)cc2)c1=O)c1c(F)c(F)cc(F)c1F` [Compound 11-480], the “Weed suppression rate (%) Scirpus juncoides” value with Scirpus juncoides [1] came out at 100%; in the test with Scirpus juncoides [5], 90%. In addition, the “Weed suppression rate (%) Echinochloa crus-galli” value with Echinochloa crus-galli [2] and in the test with Echinochloa crus-galli [6] was 100% each time. Moreover, the “Weed suppression rate (%) Lindemia pyxidaria” value with Lindernia pyxidaria [3] was 80%; in the test with Lindernia pyxidaria [7], 90%. The “Weed suppression rate (%) Monochoria vaginalis” value in the test on Monochoria vaginalis [4] amounted to 70%; with Monochoria vaginalis [8], 80%.
On to `CC(C)N(C(=O)n1cnn(S(=O)(=O)c2ccccc2Cl)c1=O)c1ccc(F)cc1Cl` [Compound 11-519], for which the results for the “Weed suppression rate (%) Scirpus juncoides” value in the test on Scirpus juncoides [1] and in the test on Scirpus juncoides [5] were 80% and 100%, respectively. The “Weed suppression rate (%) Echinochloa crus-galli” value in the test with Echinochloa crus-galli [2] is recorded as 80%; in the test on Echinochloa crus-galli [6], 100%. Besides, the “Weed suppression rate (%) Lindemia pyxidaria” value was 70% with Lindernia pyxidaria [3] and 100% with Lindernia pyxidaria [7]. Besides, the “Weed suppression rate (%) Monochoria vaginalis” value in the test with Monochoria vaginalis [4] and in the test with Monochoria vaginalis [8] was 70% in each case.
As for `CC(C)N(Cc1ccc(F)cc1F)C(=O)n1cnn(S(=O)(=O)N(C)C)c1=O` [Compound 11-1088], the “Weed suppression rate (%) Scirpus juncoides” value in the test on Scirpus juncoides [1] and in the test with Scirpus juncoides [5] was 90% each time. Besides, the “Weed suppression rate (%) Echinochloa crus-galli” value with Echinochloa crus-galli [2] and in the test on Echinochloa crus-galli [6] was 90% throughout. Besides, the “Weed suppression rate (%) Lindemia pyxidaria” value with Lindernia pyxidaria [3] and in the test on Lindernia pyxidaria [7] was 80% throughout. Besides, the “Weed suppression rate (%) Monochoria vaginalis” value in the test with Monochoria vaginalis [4] and in the test on Monochoria vaginalis [8] was 80% throughout.
In the case of `Cc1cc(C)c(S(=O)(=O)n2ncn(C(=O)N(C)c3ccc(F)cc3F)c2=O)c(C)c1` [Compound 11-1140], the “Weed suppression rate (%) Scirpus juncoides” value with Scirpus juncoides [1] and in the test on Scirpus juncoides [5] was 100% in each case. Also, the “Weed suppression rate (%) Echinochloa crus-galli” value in the test on Echinochloa crus-galli [2] and with Echinochloa crus-galli [6] was 100% in each case. In addition, the “Weed suppression rate (%) Lindemia pyxidaria” value was found to be 80% in the test with Lindernia pyxidaria [3] and 100% with Lindernia pyxidaria [7]. For the same compound, the “Weed suppression rate (%) Monochoria vaginalis” value with Monochoria vaginalis [4] and in the test on Monochoria vaginalis [8] was 90% each time.
Regarding `CC(C)N(C(=O)n1cnn(S(=O)(=O)c2ccccc2Cl)c1=O)c1c(F)cc(F)cc1F` [Compound 11-516], the entries for the “Weed suppression rate (%) Scirpus juncoides” value in the test on Scirpus juncoides [1] and in the test with Scirpus juncoides [5] were 70% and 90%, respectively. Further, the “Weed suppression rate (%) Echinochloa crus-galli” value in the test on Echinochloa crus-galli [2] and with Echinochloa crus-galli [6] was 100% throughout. The “Weed suppression rate (%) Lindemia pyxidaria” value is reported as 70% in the test with Lindernia pyxidaria [3] and 90% in the test on Lindernia pyxidaria [7]. In addition, the “Weed suppression rate (%) Monochoria vaginalis” value with Monochoria vaginalis [4] and in the test with Monochoria vaginalis [8] was 80% each time.
For `CC(C)N(C(=O)n1cnn(S(=O)(=O)N(C)C)c1=O)c1ccccc1F` [Compound 11-1054], the “Weed suppression rate (%) Scirpus juncoides” value in the test on Scirpus juncoides [1] and in the test with Scirpus juncoides [5] was 90% throughout. Also, the “Weed suppression rate (%) Echinochloa crus-galli” value in the test on Echinochloa crus-galli [2] and in the test on Echinochloa crus-galli [6] was 90% each time. The “Weed suppression rate (%) Lindemia pyxidaria” value in the test on Lindernia pyxidaria [3] and in the test with Lindernia pyxidaria [7] was 80% in each case. Also, the “Weed suppression rate (%) Monochoria vaginalis” value in the test with Monochoria vaginalis [4] and in the test on Monochoria vaginalis [8] was 80% throughout.
In the case of `CC(C)N(C(=O)n1cnn(S(=O)(=O)c2ccc(Cl)cc2)c1=O)c1ccc(Cl)cn1` [Compound 11-612], the “Weed suppression rate (%) Scirpus juncoides” value came to 90% in the test with Scirpus juncoides [1] and 70% with Scirpus juncoides [5]. In addition, the “Weed suppression rate (%) Echinochloa crus-galli” value is listed as 80% in the test on Echinochloa crus-galli [2] and 100% with Echinochloa crus-galli [6]. The entries for the “Weed suppression rate (%) Lindemia pyxidaria” value with Lindernia pyxidaria [3] and in the test on Lindernia pyxidaria [7] were 90% and 100%, respectively. Moreover, the “Weed suppression rate (%) Monochoria vaginalis” value with Monochoria vaginalis [4] and in the test on Monochoria vaginalis [8] was 70% each time.
With `CC(C)N(C(=O)n1cnn(S(C)(=O)=O)c1=O)c1cccc(F)c1` [Compound 11-3], the “Weed suppression rate (%) Scirpus juncoides” value with Scirpus juncoides [1] and in the test with Scirpus juncoides [5] was 90% in each case. The “Weed suppression rate (%) Echinochloa crus-galli” value with Echinochloa crus-galli [2] and in the test on Echinochloa crus-galli [6] was 90% in each case. Moreover, the “Weed suppression rate (%) Lindemia pyxidaria” value in the test on Lindernia pyxidaria [3] and in the test on Lindernia pyxidaria [7] was 80% each time. The “Weed suppression rate (%) Monochoria vaginalis” value in the test on Monochoria vaginalis [4] and with Monochoria vaginalis [8] was 80% in each case.
Turning to `CC(C)N(C(=O)n1cnn(S(=O)(=O)C2CCCCC2)c1=O)c1ccc(C(F)(F)F)cc1Cl` [Compound 11-314], the “Weed suppression rate (%) Scirpus juncoides” value in the test on Scirpus juncoides [1] and in the test with Scirpus juncoides [5] was 90% in each case. Also, the “Weed suppression rate (%) Echinochloa crus-galli” value with Echinochloa crus-galli [2] and in the test with Echinochloa crus-galli [6] was 90% in each case. Moreover, the “Weed suppression rate (%) Lindemia pyxidaria” value with Lindernia pyxidaria [3] and in the test on Lindernia pyxidaria [7] was 80% throughout. Besides, the “Weed suppression rate (%) Monochoria vaginalis” value in the test with Monochoria vaginalis [4] and in the test on Monochoria vaginalis [8] was 80% in each case.
Turning to `CN(C(=O)n1cnn(S(=O)(=O)c2ccc(C(C)(C)C)cc2)c1=O)c1ccc(F)cc1F` [Compound 11-1141], the “Weed suppression rate (%) Scirpus juncoides” value with Scirpus juncoides [1] was found to be 60%. Besides, the “Weed suppression rate (%) Echinochloa crus-galli” value with Echinochloa crus-galli [2] is recorded as 90%. In addition, the “Weed suppression rate (%) Lindemia pyxidaria” value in the test on Lindernia pyxidaria [3] came out at 70%. In addition, the “Weed suppression rate (%) Monochoria vaginalis” value in the test with Monochoria vaginalis [4] stood at 80%.
On to `Cc1ccc(S(=O)(=O)n2ncn(C(=O)N(c3ccc(C)cc3F)C(C)C)c2=O)cc1` [Compound 11-651], for which the “Weed suppression rate (%) Scirpus juncoides” value in the test on Scirpus juncoides [1] and in the test on Scirpus juncoides [5] was 90% each time. Further, the “Weed suppression rate (%) Echinochloa crus-galli” value with Echinochloa crus-galli [2] and in the test with Echinochloa crus-galli [6] was 90% throughout. The “Weed suppression rate (%) Lindemia pyxidaria” value in the test with Lindernia pyxidaria [3] was 80%; in the test with Lindernia pyxidaria [7] it was 90%. Besides, the “Weed suppression rate (%) Monochoria vaginalis” value is 80% with Monochoria vaginalis [4] and 90% in the test with Monochoria vaginalis [8].
`CC(C)N(C(=O)n1cnn(S(=O)(=O)c2cccc(Cl)c2)c1=O)c1ccc(F)c(F)c1F` [Compound 11-553]: the “Weed suppression rate (%) Scirpus juncoides” value in the test with Scirpus juncoides [1] and in the test with Scirpus juncoides [5] was 30% throughout. Further, the “Weed suppression rate (%) Echinochloa crus-galli” value with Echinochloa crus-galli [2] and in the test with Echinochloa crus-galli [6] was 100% throughout. In addition, the “Weed suppression rate (%) Lindemia pyxidaria” value came to 70% with Lindernia pyxidaria [3] and 90% in the test with Lindernia pyxidaria [7]. Moreover, the “Weed suppression rate (%) Monochoria vaginalis” value with Monochoria vaginalis [4] is on record as 60%; in the test with Monochoria vaginalis [8], 70%.
For the compound `CC(C)N(C(=O)n1cnn(S(=O)(=O)N(C)C)c1=O)c1c(F)c(F)cc(F)c1F` [Compound 11-1069], the “Weed suppression rate (%) Scirpus juncoides” value in the test with Scirpus juncoides [1] came out at 60%. The “Weed suppression rate (%) Echinochloa crus-galli” value in the test on Echinochloa crus-galli [2] amounted to 90%. In the test with Lindernia pyxidaria [3], the “Weed suppression rate (%) Lindemia pyxidaria” value amounted to 70%. Besides, the “Weed suppression rate (%) Monochoria vaginalis” value in the test with Monochoria vaginalis [4] is on record as 70%.
As to `Cc1ccc(S(=O)(=O)n2ncn(C(=O)N(c3ccc(Br)cc3Cl)C(C)C)c2=O)cc1` [Compound 11-648], the “Weed suppression rate (%) Scirpus juncoides” value in the test with Scirpus juncoides [1] stood at 90%. Further, the “Weed suppression rate (%) Echinochloa crus-galli” value with Echinochloa crus-galli [2] is reported as 60%. Further, in the test with Lindernia pyxidaria [3], the “Weed suppression rate (%) Lindemia pyxidaria” value is listed as 60%. The “Weed suppression rate (%) Monochoria vaginalis” value in the test with Monochoria vaginalis [4] was found to be 70%.
As for `CN(C(=O)n1cnn(S(=O)(=O)c2ccc(Cl)cc2)c1=O)c1ccc(F)cc1F` [Compound 11-1134], the “Weed suppression rate (%) Scirpus juncoides” value in the test with Scirpus juncoides [1] was 100%. For the same compound, the “Weed suppression rate (%) Echinochloa crus-galli” value in the test on Echinochloa crus-galli [2] amounted to 80%. Besides, the “Weed suppression rate (%) Lindemia pyxidaria” value with Lindernia pyxidaria [3] amounted to 70%. Besides, the “Weed suppression rate (%) Monochoria vaginalis” value in the test with Monochoria vaginalis [4] is recorded as 70%.
In the case of `Cc1cc(F)ccc1N(C(=O)n1cnn(S(=O)(=O)c2ccccc2F)c1=O)C(C)C` [Compound 11-415], the “Weed suppression rate (%) Scirpus juncoides” value with Scirpus juncoides [5] amounted to 30%. Further, the “Weed suppression rate (%) Echinochloa crus-galli” value in the test with Echinochloa crus-galli [6] is 80%. Besides, the “Weed suppression rate (%) Lindemia pyxidaria” value with Lindernia pyxidaria [7] is reported as 70%. The “Weed suppression rate (%) Monochoria vaginalis” value with Monochoria vaginalis [8] came out at 70%.
